In patent US20240423904A1, “Systems and Methods for Controlling Chemical Reactions Using Ultrasound” (priority 2023, published 2024):

Tests used:
[1] = Thermally activated release of camptothecin from mechanophore bis-initiator, 1H NMR and LCMS; type: physicochemical; conditions: 24 h at 100° C. in toluene-d8, then diluted into 3:1 acetonitrile/methanol
Protocol: Several embodiments provide confirmation of CPT release via ^1H NMR spectroscopy and LCMS. Prior to mechanochemical activation studies, we first confirmed that camptothecin was released in polar protic solvent upon unmasking of the expected unstable furfuryl carbonate. To enable characterization, the furfuryl carbonate species was generated thermally from small molecule initiator 1-CPT. Masked furfuryl carbonate 1-CPT was dissolved in toluene-d8 and analyzed by ^1H NMR spectroscopy before and after heating for 24 h at 100° C. Comparison to spectrum of the expected maleimide fragment confirmed significant thermal retro-Diels-Alder reaction occurred under these conditions. A drop of this solution was then diluted into 3:1 acetonitrile/methanol and analyzed by LCMS (gradient of 0-50% acetonitrile/water over 4 minutes).

[2] = system: Raji cells; assay: MTT cell viability assay on Raji cells; type: cell-based; conditions: Homo sapiens, 48 h, pure CPT, 2 days at 37° C.
Protocol: Raji cells were incubated in RPMI 1640 media with 10% fetal bovine serum and 1% antibacterial Penicillin/Streptomycin (PenStrep) at 37° C. and 5% CO2. An MTT colorimetric assay was used to quantify cell viability.
Raji cells were used to evaluate the effectiveness of CPT release for potential chemotherapy. Raji cells were incubated in RPMI 1640 media, with 10% fetal bovine serum and 1% antibacterial Penicillin/Streptomycin (PenStrep) at 37° C. and 5% CO2. The instructions provided by the manufacturer (Abcam) were followed to perform the MTT assay. Approximately 10,000 Raji cells suspended in 150 μL of media were seeded into each well of a 96-well plate. Subsequently, 50 μL of polymer sample (or pure CPT) at varying concentrations was added to corresponding wells. For calibration purposes, wells without cells and wells with only cells and media were also prepared, representing 0% and 100% cell viability, respectively. After 48 hours of incubation, cells were spun down inside the plate and media were carefully aspirated. Then 50 μL of serum free media and 50 μL of MTT solution were added to each well. Following a 3 h incubation, 150 μL MTT solution was added to each well. […] The absorbance at 590 nm was measured by a microplate reader (TECAN Spark) to quantify the cell viability in each well. Cell viability is calculated using eq.

[3] = Stability of free CPT upon exposure to FUS, HPLC; type: physicochemical; conditions: FUS 10 min, presence or absence of GVs (1.4 nM)
Protocol: Experiments were performed in duplicate on a sample of CPT in water (˜3 μM). After insonation, samples were diluted 3:1 with a stock solution of IS (40 μM) and concentrations were determined from integration of the peak corresponding to CPT relative to that of the internal standard and scaled by 4/3 to account for dilution.

| SMILES | release of CPT after thermal retro-Diels-Alder reaction [1] | EC50 [2] [nM] | stability upon exposure to FUS [3] |
| --- | --- | --- | --- |
| CC[C@@]1(OC(=O)OC(C)[C@]23O[C@](COC(=O)C(C)(C)Br)(C=C2Oc2ccccc2)[C@@H]2C(=O)N(CCOC(=O)C(C)(C)Br)C(=O)[C@@H]23)C(=O)OCc2c1cc1n(c2=O)Cc2cc3ccccc3nc2-1 (stereo partly drawn) [1-CPT, ((3aR,4R,7S,7aS)-2-(2-((2-bromo-2-methylpropanoyl)oxy)ethyl)-7-(1-(((((S)-4-ethyl-3,14-dioxo-3,4,12,14-tetrahydro-1H-pyrano[3′,4′:6,7]indolizino[1,2-b]quinolin-4-yl)oxy)carbonyl)oxy)ethyl)-1,3-dioxo-6-phenoxy-1,2,3,3a,7,7a-hexahydro-4H-4,7-epoxyisoindol-4-yl)methyl 2-bromo-2-methylpropanoatebromo-2-methylpropanoate] | CPT is released | – | – |
| CC[C@@]1(O)C(=O)OCc2c1cc1n(c2=O)Cc2cc3ccccc3nc2-1 [CPT, camptothecin] | – | ~25 | stable |
